Reference: PMC5342262, “Synthesis, in vitro and in vivo evaluation of 3β-[^18F]fluorocholic acid for the detection of drug-induced cholestasis in mice” (PLoS ONE, 2017)

What was measured:
MRP2 = MRP2 (Homo sapiens, UniProt Q92887); assay: In vitro efflux competition assay with [^3H]EbG in MRP2 membrane vesicles
Description: (§1) The assay was performed in 96-well plates. […] The final volume in each well was 30 μL. The plates were incubated for 10 minutes at 37°C and uptake was halted by the addition of 150 μL ice-cold buffer solution. The contents of each well were transferred to a glass fiber filter plate (Multiscreen HTS plates; Merck Millipore) and washed 3 times with 200 μL of ice-cold buffer solution. Vesicles were lysed by incubation with 100 μL 0.1 M NaOH for 10 minutes at room temperature. An 80 μL aliquot of this solution was used for liquid scintillation counting. Data points were collected in triplicate. IC50-values were calculated with Graphpad Prism v3.00.

OATP1B3 = molecular target: T1, OATP1B3 (Homo sapiens, UniProt Q9NPD5); assay: In vitro uptake assay with [^3H]EbG in HEK-OATP1B3 cells
T1 sequence (Q9NPD5 1-702): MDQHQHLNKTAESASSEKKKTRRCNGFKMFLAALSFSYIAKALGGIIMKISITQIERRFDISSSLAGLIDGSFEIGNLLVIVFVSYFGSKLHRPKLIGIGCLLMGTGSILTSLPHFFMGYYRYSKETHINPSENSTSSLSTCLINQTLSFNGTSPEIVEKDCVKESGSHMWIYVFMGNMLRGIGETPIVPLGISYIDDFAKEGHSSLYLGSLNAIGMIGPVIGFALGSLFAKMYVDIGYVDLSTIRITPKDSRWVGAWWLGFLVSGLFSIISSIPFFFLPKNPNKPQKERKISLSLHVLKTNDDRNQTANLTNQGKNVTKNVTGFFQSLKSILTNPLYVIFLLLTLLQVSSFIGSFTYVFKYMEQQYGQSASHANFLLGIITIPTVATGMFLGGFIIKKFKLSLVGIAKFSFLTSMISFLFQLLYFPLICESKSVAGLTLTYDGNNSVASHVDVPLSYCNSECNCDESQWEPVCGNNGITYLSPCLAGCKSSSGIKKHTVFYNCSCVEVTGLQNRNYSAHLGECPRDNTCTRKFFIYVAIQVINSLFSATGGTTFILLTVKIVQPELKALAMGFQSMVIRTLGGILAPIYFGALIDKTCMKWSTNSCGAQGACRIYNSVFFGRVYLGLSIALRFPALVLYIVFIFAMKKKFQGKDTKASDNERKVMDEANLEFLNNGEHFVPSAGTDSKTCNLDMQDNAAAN
Description: (§2) Transport of 3β-fluorocholic acid by NTCP, OATP1B1 and OATP1B3 was assessed using stable transfected cell lines. Chinese hamster ovary (CHO) cells, Human Embryonic Kidney (HEK), HEK293-OATP1B3 cells were purchased from Solvo Biotechnologies; CHO-NTCP and HEK293-OATP1B1 cells were a kind gift from the same company. CHO cells were cultured in Dulbecco’s modified Eagle’s medium (DMEM)/F12 with 10% fetal calf serum, 0.3 mM L-proline, 2 mM glutamine and penicilline/streptomycine (50 U/mL). HEK cells expressing OATP1B1, OATP1B3 and control cell lines were cultured in DMEM glutamax (high glucose/pyruvate) with 10% fetal calf serum, MEM non-essential amino acid supplement and penicilline/streptomycine (50 U/mL). All cell lines were cultured in a 37°C 5% CO2 environment.
(§3) Transport of FCA by the NTCP, OATP1B1 and OATP1B3 transporters was assessed by inhibition of the tritium labeled model substrates uptake.
(§4) Cells were seeded in 24-well plates at 400,000 cells per well. […] The plates were cooled on ice and 1 mL 1% BSA ice-cold HBSS (with Ca and Mg) was added. Cells were washed twice with 2 mL ice-cold HBSS (with Ca and Mg) and were finally lysed with 250 μL 0.1 M NaOH. […] Of the lysate, 150 μL was used for liquid scintillation counting (TriCarb 2900 TR; Perkin Elmer) and 25 μL was subjected to a BCA assay (ThermoFisher Scientific) to determine protein content. Data points were collected in triplicate. IC50-values were calculated with Graphpad Prism v3.00 (Graphpad software).

NTCP = molecular target: T2, NTCP (Homo sapiens, UniProt Q14973); assay: In vitro uptake assay with [^3H]TC in CHO-NTCP cells
T2 sequence (Q14973 1-349): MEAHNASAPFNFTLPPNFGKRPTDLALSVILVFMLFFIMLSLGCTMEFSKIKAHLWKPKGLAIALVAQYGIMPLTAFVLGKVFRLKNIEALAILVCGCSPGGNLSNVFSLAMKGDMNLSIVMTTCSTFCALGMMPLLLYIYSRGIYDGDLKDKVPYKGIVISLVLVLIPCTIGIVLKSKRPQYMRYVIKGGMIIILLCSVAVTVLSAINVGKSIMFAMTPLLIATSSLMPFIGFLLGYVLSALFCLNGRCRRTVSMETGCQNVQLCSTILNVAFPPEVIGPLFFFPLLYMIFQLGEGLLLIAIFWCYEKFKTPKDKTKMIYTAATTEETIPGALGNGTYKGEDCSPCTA
Description: as §2, §3
Cells were seeded in 24-well plates at 400,000 cells per well. After 24 hours, the culture medium was removed and cells were washed twice with 1 mL 10 mM HEPES-Hank’s Balanced Salt Solution (HBSS; with Ca and Mg; 37°C pH 7.4) washing buffer. […] Of the dosing solution, 250 μL was added to the washed cells and incubation took place at 37°C for 15 minutes. The plates were cooled on ice and 1 mL 1% BSA ice-cold HBSS (with Ca and Mg) was added. Cells were washed twice with 2 mL ice-cold HBSS (with Ca and Mg) and were finally lysed with 250 μL 0.1 M NaOH. The plates were shaken for 15 minutes at 37°C. Of the lysate, 150 μL was used for liquid scintillation counting (TriCarb 2900 TR; Perkin Elmer) and 25 μL was subjected to a BCA assay (ThermoFisher Scientific) to determine protein content. Data points were collected in triplicate. IC50-values were calculated with Graphpad Prism v3.00 (Graphpad software).

BSEP = BSEP (Homo sapiens, UniProt O95342); assay: In vitro efflux competition assay with [^3H]TC in BSEP membrane vesicles
Description: as §1

OATP1B1 = molecular target: T3, OATP1B1 (Homo sapiens, UniProt Q9Y6L6); assay: In vitro uptake assay with [^3H]EbG in HEK-OATP1B1 cells
T3 sequence (Q9Y6L6 1-691): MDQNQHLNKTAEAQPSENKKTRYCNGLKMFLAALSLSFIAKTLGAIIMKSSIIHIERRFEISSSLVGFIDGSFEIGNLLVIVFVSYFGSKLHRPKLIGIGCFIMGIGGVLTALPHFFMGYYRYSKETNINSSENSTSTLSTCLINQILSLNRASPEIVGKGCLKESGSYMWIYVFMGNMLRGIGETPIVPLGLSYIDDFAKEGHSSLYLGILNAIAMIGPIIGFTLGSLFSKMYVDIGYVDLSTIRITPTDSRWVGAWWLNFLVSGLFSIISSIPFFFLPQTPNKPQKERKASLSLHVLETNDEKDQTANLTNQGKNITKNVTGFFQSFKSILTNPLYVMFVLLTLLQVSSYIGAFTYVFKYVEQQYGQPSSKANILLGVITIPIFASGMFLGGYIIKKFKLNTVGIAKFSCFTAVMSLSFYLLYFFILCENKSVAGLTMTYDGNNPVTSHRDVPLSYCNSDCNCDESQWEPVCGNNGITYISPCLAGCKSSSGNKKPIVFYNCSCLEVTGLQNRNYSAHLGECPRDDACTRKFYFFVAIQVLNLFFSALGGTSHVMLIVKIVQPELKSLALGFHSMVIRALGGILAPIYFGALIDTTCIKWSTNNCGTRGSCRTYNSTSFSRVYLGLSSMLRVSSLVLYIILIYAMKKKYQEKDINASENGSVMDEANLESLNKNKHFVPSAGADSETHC
Description: as §2, §3, §4

MRP2, sequence (Q92887 whole entry): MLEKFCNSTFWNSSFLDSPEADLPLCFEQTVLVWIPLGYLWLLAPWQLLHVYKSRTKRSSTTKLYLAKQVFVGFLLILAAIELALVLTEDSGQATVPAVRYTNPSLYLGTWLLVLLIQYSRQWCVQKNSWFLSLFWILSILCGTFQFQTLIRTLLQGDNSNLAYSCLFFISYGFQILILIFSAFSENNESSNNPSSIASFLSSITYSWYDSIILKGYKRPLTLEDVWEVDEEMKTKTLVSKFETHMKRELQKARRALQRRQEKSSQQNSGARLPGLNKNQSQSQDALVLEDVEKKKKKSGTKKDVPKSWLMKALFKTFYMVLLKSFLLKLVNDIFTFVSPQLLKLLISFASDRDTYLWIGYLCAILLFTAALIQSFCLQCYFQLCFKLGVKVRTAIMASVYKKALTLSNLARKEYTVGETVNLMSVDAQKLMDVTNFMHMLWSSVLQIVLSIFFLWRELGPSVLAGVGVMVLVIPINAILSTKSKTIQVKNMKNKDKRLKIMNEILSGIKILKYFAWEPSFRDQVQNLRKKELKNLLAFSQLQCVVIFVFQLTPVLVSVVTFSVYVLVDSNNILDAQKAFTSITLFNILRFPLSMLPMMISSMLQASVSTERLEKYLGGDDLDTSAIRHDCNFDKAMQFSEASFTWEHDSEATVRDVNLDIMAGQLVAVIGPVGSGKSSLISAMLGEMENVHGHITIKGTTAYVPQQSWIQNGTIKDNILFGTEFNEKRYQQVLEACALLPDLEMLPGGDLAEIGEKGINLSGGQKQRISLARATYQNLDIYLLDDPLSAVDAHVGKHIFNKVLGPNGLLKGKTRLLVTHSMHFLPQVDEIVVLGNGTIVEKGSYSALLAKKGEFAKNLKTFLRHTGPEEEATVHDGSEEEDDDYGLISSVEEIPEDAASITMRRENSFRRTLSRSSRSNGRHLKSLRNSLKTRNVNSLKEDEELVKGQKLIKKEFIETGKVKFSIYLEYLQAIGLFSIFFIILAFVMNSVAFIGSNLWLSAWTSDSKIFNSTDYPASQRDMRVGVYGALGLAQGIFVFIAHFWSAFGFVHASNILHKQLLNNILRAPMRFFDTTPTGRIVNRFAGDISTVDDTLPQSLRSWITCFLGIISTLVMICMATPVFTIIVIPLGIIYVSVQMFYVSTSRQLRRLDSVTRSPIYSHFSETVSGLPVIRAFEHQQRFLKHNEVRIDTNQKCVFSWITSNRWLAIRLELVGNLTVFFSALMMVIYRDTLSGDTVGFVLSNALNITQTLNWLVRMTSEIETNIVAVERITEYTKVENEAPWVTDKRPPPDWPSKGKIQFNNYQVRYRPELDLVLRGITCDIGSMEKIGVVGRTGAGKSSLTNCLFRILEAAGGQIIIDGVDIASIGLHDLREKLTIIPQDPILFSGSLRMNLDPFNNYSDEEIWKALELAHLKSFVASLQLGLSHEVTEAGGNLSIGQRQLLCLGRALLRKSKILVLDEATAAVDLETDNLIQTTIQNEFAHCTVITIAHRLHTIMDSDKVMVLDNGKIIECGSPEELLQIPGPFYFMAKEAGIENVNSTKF
BSEP, sequence (O95342 whole entry): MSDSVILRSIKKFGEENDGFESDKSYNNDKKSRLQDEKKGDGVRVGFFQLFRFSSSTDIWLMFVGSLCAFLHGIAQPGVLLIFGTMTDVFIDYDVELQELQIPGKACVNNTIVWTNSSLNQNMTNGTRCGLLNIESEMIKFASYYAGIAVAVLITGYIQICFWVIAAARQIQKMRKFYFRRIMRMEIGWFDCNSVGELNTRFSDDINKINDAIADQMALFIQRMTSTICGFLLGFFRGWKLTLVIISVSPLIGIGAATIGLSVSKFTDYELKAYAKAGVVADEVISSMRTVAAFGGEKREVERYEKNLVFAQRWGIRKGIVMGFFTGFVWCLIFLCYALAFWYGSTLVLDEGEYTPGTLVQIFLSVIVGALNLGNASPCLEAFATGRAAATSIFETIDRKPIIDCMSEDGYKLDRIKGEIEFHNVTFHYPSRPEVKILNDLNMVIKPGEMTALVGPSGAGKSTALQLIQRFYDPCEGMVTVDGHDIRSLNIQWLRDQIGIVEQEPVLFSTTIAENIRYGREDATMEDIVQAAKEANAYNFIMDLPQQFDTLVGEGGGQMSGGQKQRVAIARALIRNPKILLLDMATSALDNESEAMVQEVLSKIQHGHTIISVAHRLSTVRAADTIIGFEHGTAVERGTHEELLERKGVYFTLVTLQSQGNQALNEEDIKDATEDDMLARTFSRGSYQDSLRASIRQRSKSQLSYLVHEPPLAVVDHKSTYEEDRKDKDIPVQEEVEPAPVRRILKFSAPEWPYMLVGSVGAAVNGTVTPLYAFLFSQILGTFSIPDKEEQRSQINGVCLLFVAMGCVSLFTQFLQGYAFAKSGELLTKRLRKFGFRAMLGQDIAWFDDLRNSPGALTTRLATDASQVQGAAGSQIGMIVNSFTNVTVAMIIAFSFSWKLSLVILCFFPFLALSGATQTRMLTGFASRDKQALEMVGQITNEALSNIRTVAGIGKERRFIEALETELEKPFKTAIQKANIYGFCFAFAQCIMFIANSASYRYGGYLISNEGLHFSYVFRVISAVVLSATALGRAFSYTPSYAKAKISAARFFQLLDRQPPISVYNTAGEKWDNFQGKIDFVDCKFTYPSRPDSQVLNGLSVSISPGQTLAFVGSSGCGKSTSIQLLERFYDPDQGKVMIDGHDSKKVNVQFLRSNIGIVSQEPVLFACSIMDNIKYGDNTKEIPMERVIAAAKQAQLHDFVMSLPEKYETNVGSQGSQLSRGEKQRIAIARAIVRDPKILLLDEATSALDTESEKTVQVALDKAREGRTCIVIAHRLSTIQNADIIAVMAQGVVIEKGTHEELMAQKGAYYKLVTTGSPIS

IC50 (MRP2): 577 ± 300 µM
IC50 (OATP1B3): 25.2 ± 12.7 µM
IC50 (NTCP): 6.6 ± 0.8 µM
IC50 (OATP1B1): 10.5 ± 1.1 µM
SMILES: C[C@H](CCC(=O)O)[C@H]1CC[C@H]2[C@@H]3[C@H](O)C[C@@H]4C[C@@H](F)CC[C@]4(C)[C@H]3C[C@H](O)[C@]12C [FCA, 3β-Fluoro-7α,12α-Dihydroxy-5β-Cholanic acid]
IC50 (BSEP): 253 ± 76 µM
